Calls of active or inactive are those of the source. The rule behind the calls is not given here.
What was measured:
[1] = molecular target: T1, Xanthine dehydrogenase/oxidase (Bos taurus, UniProt P80457); test: Inhibition of bovine milk xanthine oxidoreductase pre-incubated for 3 mins followed xanthine substrate addition and measured every 1 mins for 10 mins by spectrophotometry
Mus musculus [2] = test: Hypouricemic effect in ICR mouse model of potassium oxonate and hypoxanthine-induced acute hyperuricemia assessed as reduction in serum uric acids level at 5 mg/kg, po dosed 1 hr after potassium oxonate and hypoxanthine challenge and measured after 1 to 4 hrs post dose; format: functional, organism-based
Mus musculus [3] = test: Hypouricemic effect in ICR mouse model of potassium oxonate and hypoxanthine-induced acute hyperuricemia assessed as reduction in serum uric acids level at 5 mg/kg, po dosed 1 hr after potassium oxonate and hypoxanthine challenge and measured after 1 hr post dose; format: functional, organism-based
[4] = Tmax in rat at 3 mg/kg, po measured during 5 mins to 24 hrs post dose by LC-MS/MS method; format: ADME, organism-based; conditions: in vivo
[5] = Cmax in rat at 10 mg/kg, po measured during 5 mins to 24 hrs post dose by LC-MS/MS method; format: ADME, organism-based; design: dose 10 mg/kg, route oral; conditions: in vivo
[6] = molecular target: T1, Xanthine dehydrogenase/oxidase; test: Mixed type inhibition of bovine milk xanthine oxidoreductase pre-incubated for 3 mins using varying xanthine substrate levels and measured every 1 mins for 10 mins by spectrophotometry based Lineweaver-Burk plot; conditions: cattle
Rattus norvegicus = test: AUC (0 to infinity) in rat at 10 mg/kg, po measured during 5 mins to 24 hrs post dose by LC-MS/MS method; format: ADME, organism-based; design: dose 10 mg/kg, time infinity, route oral; conditions: in vivo
[7] = Tmax in rat at 10 mg/kg, po measured during 5 mins to 24 hrs post dose by LC-MS/MS method; format: ADME, organism-based; conditions: in vivo
[8] = Half life in rat at 10 mg/kg, po measured during 5 mins to 24 hrs post dose by LC-MS/MS method; format: ADME, organism-based; conditions: in vivo

T1 sequence (P80457 whole entry): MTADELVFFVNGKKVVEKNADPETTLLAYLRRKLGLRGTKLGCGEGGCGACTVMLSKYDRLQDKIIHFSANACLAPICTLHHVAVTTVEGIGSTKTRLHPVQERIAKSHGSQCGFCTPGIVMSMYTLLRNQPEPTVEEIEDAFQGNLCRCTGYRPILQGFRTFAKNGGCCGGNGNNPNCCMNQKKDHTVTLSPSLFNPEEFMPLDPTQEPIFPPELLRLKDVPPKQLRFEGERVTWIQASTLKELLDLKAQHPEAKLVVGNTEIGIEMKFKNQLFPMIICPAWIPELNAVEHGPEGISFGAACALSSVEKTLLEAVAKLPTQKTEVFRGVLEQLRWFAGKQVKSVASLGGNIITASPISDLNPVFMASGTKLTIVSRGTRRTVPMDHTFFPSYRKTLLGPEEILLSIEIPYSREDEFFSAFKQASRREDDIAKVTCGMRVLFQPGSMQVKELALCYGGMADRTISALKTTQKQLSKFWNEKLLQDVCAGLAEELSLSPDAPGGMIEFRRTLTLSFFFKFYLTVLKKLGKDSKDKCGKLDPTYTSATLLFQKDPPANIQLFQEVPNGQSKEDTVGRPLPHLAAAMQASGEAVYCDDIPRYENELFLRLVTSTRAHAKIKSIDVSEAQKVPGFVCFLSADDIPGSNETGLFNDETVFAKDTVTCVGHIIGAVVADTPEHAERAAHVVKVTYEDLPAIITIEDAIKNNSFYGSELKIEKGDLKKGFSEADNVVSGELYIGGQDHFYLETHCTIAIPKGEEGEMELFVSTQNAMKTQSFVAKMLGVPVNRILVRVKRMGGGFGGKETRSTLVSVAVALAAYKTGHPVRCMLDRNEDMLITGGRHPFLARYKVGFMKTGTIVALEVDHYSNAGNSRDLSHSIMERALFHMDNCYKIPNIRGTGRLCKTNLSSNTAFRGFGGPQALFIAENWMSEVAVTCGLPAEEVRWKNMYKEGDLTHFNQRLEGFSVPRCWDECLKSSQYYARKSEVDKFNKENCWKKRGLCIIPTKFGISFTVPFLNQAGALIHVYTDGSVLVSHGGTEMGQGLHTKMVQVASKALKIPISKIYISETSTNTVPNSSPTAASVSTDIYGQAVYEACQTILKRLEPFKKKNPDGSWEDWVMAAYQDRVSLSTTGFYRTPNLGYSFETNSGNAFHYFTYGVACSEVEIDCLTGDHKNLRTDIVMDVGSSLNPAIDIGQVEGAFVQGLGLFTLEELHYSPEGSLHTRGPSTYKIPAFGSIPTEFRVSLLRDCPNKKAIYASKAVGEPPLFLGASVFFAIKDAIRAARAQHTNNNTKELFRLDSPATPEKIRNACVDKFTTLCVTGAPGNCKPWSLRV

IC50 [1] | Compound | other results
> 100 nM | CCCCCCCCOc1ccc(-n2cc(C(=O)O)c(C(F)(F)F)n2)cc1C#N | 
4.2 nM | N#Cc1cc(-n2cc(C(=O)O)cn2)ccc1N1CCCCC1 | Activity (Mus musculus [2]): Active; Activity (Mus musculus [3]): Active
> 100 nM | CC(C)(C)COc1ccc(-n2cc(C(=O)O)c(C(F)(F)F)n2)cc1C#N | 
> 100 nM | CC(C)COc1ccc(-n2cc(C(=O)O)c(C(F)(F)F)n2)cc1C#N | 
 | CC(C)(C)COc1ccc(-n2cc(C(=O)O)cn2)cc1C#N | Tmax [4]: 0.5 h
5.7 nM | CC(C)CN(C)c1ccc(-n2cc(C(=O)O)cn2)cc1C#N | Activity (Mus musculus [2]): Active; Activity (Mus musculus [3]): Active; Cmax [5]: 168 ng/mL; inhibition (INH) [6]: Active; AUC (Rattus norvegicus): 607 ng·h/mL; Tmax [7]: 1 h; half-life [8]: 5 h
45 nM | Cc1nn(-c2ccc(OC(C)C)c(C#N)c2)cc1C(=O)O | 
> 100 nM | Cc1nn(-c2ccc(N3CCOCC3)c([N+](=O)[O-])c2)cc1C(=O)O | 
7.7 nM | CC(C)CNc1ccc(-n2cc(C(=O)O)cn2)cc1C#N | 
> 100 nM | CCOc1ccc(-n2cc(C(=O)O)c(C)n2)cc1C#N | 
 | Cc1nc(-c2ccc(OCC(C)C)c(C#N)c2)sc1C(=O)O | Activity (Mus musculus [3]): Active
> 100 nM | CC(C)Oc1ccc(-n2cc(C(=O)O)c(C(F)(F)F)n2)cc1C#N | 
5.7 nM | N#Cc1cc(-n2cc(C(=O)O)cn2)ccc1N1CCCC1 | 
23 nM | Cc1nn(-c2ccc(OCC(C)(C)C)c(C#N)c2)cc1C(=O)O | 
> 100 nM | CCOc1ccc(-n2cc(C(=O)O)c(C(F)(F)F)n2)cc1C#N | 
> 100 nM | CCCCCCCCOc1ccc(-n2cc(C(=O)O)c(C)n2)cc1C#N | 
10.8 nM | CN(C)c1ccc(-n2cc(C(=O)O)cn2)cc1C#N | 
> 100 nM | Cc1nn(-c2ccc(N3CCOCC3)c(C#N)c2)cc1C(=O)O | 
6.7 nM | CC1CCCN1c1ccc(-n2cc(C(=O)O)cn2)cc1C#N (stereo not given) | 
13.3 nM | Cc1nn(-c2ccc(N3CCCCC3)c(C#N)c2)cc1C(=O)O | 
59.6 nM | Cc1nn(-c2ccc(N3CCCCC3)c([N+](=O)[O-])c2)cc1C(=O)O | 

From ChEMBL document CHEMBL4190341, “Synthesis and bioevaluation of 1-phenyl-pyrazole-4-carboxylic acid derivatives as potent xanthine oxidoreductase inhibitors” (Eur J Med Chem, 2017)
